PubChem BioAssay (NCI)
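Grown in 96-well plates, cells were treated for 48 hours with each compound at five concentrations. Insufficient inhibition: endpoint recorded as highest concentration tested. Abbreviation: GI50, concentration required for 50% inhibition of growth. The concentration for full growth arrest is given as TGI.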

Experiments:
Test in all cases: growth of human tumour cells (NCI), 48 h
PC-3 prostate = test system: PC-3 prostate
HOP-92 NSCLC = test system: HOP-92 NSCLC
HCT-15 colon = test system: HCT-15 colon
A549 NSCLC = test system: A549 NSCLC
HOP-62 NSCLC = test system: HOP-62 NSCLC
NCI/ADR-RES ovarian = test system: NCI/ADR-RES ovarian
SW-620 colon = test system: SW-620 colon
NCI-H23 lung = test system: NCI-H23 lung
HL-60(TB) leukemia = test system: HL-60(TB) leukemia
SN12C renal = test system: SN12C renal
UACC-257 melanoma = test system: UACC-257 melanoma
MDA-MB-468 breast = test system: MDA-MB-468 breast
SK-MEL-28 melanoma = test system: SK-MEL-28 melanoma
SK-MEL-2 melanoma = test system: SK-MEL-2 melanoma
ACHN renal = test system: ACHN renal
OVCAR-4 ovarian = test system: OVCAR-4 ovarian
SF-268 CNS = test system: SF-268 CNS
MALME-3M melanoma = test system: MALME-3M melanoma
NCI-H226 lung = test system: NCI-H226 lung
EKVX NSCLC = test system: EKVX NSCLC
786-0 renal = test system: 786-0 renal
CCRF-CEM leukemia = test system: CCRF-CEM leukemia
HCC-2998 colon = test system: HCC-2998 colon
UO-31 renal = test system: UO-31 renal
OVCAR-3 ovarian = test system: OVCAR-3 ovarian
OVCAR-5 ovarian = test system: OVCAR-5 ovarian
MDA-MB-435 = test system: MDA-MB-435
SNB-19 CNS = test system: SNB-19 CNS
T-47D breast = test system: T-47D breast
UACC-62 melanoma = test system: UACC-62 melanoma
NCI-H522 lung = test system: NCI-H522 lung
DU-145 prostate = test system: DU-145 prostate
K-562 leukemia = test system: K-562 leukemia
SNB-75 CNS = test system: SNB-75 CNS
COLO 205 colon = test system: COLO 205 colon
HS 578T breast = test system: HS 578T breast
MCF7 breast = test system: MCF7 breast
RPMI-8226 leukemia = test system: RPMI-8226 leukemia
A498 renal = test system: A498 renal
MOLT-4 leukemia = test system: MOLT-4 leukemia
BT-549 breast = test system: BT-549 breast
RXF 393 renal = test system: RXF 393 renal
OVCAR-8 ovarian = test system: OVCAR-8 ovarian
TK-10 renal = test system: TK-10 renal
SK-OV-3 ovarian = test system: SK-OV-3 ovarian
SF-295 CNS = test system: SF-295 CNS
SK-MEL-5 melanoma = test system: SK-MEL-5 melanoma
IGROV1 ovarian = test system: IGROV1 ovarian
MDA-MB-231 breast = test system: MDA-MB-231 breast
HT29 colon = test system: HT29 colon
SR leukemia = test system: SR leukemia
LOX IMVI melanoma = test system: LOX IMVI melanoma
KM12 colon = test system: KM12 colon
NCI-H460 lung = test system: NCI-H460 lung
U251 CNS = test system: U251 CNS
HCT-116 colon = test system: HCT-116 colon
SF-539 CNS = test system: SF-539 CNS
M14 melanoma = test system: M14 melanoma
CAKI-1 renal = test system: CAKI-1 renal

`Cc1ccc(C2CC(c3ccc(NC(=O)Nc4ccccc4)cc3)=NN2c2ccc(S(C)(=O)=O)cc2)cc1` (stereo not drawn) gave a GI50 (PC-3 prostate) of 2820 nM, a TGI (PC-3 prostate) of 11.8 µM and a GI50 (HOP-92 NSCLC) of 2350 nM. It also gave a TGI (HOP-92 NSCLC) of 8.22 µM, a GI50 (HCT-15 colon) of 1950 nM and a TGI (HCT-15 colon) of 5.4 µM. The GI50 (A549 NSCLC) was 3.46 µM, the TGI (A549 NSCLC) was 16 µM and the GI50 (HOP-62 NSCLC) was 6.94 µM. For the same molecule, the TGI (HOP-62 NSCLC) was 21.4 µM, the GI50 (NCI/ADR-RES ovarian) was 2500 nM and the TGI (NCI/ADR-RES ovarian) was 7.74 µM. The GI50 (SW-620 colon) was 2600 nM, the TGI (SW-620 colon) was 12.1 µM and the GI50 (NCI-H23 lung) was 2480 nM. For the same molecule, the TGI (NCI-H23 lung) was 8.48 µM, the GI50 (HL-60(TB) leukemia) was 2090 nM and the TGI (HL-60(TB) leukemia) was 6.11 µM. It also gave a GI50 (SN12C renal) of 1690 nM, a TGI (SN12C renal) of 3.16 µM and a GI50 (UACC-257 melanoma) of 6.15 µM. The TGI (UACC-257 melanoma) was 22.6 µM, the GI50 (MDA-MB-468 breast) was 2090 nM and the TGI (MDA-MB-468 breast) was 5.66 µM. For the same molecule, the GI50 (SK-MEL-28 melanoma) was 3.39 µM, the TGI (SK-MEL-28 melanoma) was 11.9 µM and the GI50 (SK-MEL-2 melanoma) was 7.39 µM. The TGI (SK-MEL-2 melanoma) was 22.3 µM, the GI50 (ACHN renal) was 2990 nM and the TGI (ACHN renal) was 9.59 µM. For the same molecule, the GI50 (OVCAR-4 ovarian) was 2840 nM, the TGI (OVCAR-4 ovarian) was 11.3 µM and the GI50 (SF-268 CNS) was 3.82 µM. The TGI (SF-268 CNS) was 15.5 µM, the GI50 (MALME-3M melanoma) was 2470 nM and the TGI (MALME-3M melanoma) was 8.74 µM. The GI50 (NCI-H226 lung) was 2410 nM, the TGI (NCI-H226 lung) was 7.04 µM and the GI50 (EKVX NSCLC) was 2610 nM. For the same molecule, the TGI (EKVX NSCLC) was 11.1 µM, the GI50 (786-0 renal) was 2240 nM and the TGI (786-0 renal) was 6.1 µM. For the same molecule, the GI50 (CCRF-CEM leukemia) was 2530 nM, the TGI (CCRF-CEM leukemia) was 6.98 µM and the GI50 (HCC-2998 colon) was 2380 nM. It also gave a TGI (HCC-2998 colon) of 6.27 µM, a GI50 (UO-31 renal) of 2580 nM and a TGI (UO-31 renal) of 11.2 µM. It also gave a GI50 (OVCAR-3 ovarian) of 1930 nM, a TGI (OVCAR-3 ovarian) of 4.47 µM and a GI50 (OVCAR-5 ovarian) of 2270 nM. The TGI (OVCAR-5 ovarian) was 6.78 µM, the GI50 (MDA-MB-435) was 2940 nM and the TGI (MDA-MB-435) was 12.3 µM. The GI50 (SNB-19 CNS) was 5.53 µM, the TGI (SNB-19 CNS) was 18.4 µM and the GI50 (T-47D breast) was 3.02 µM. It also gave a TGI (T-47D breast) of 11.1 µM, a GI50 (UACC-62 melanoma) of 3.19 µM and a TGI (UACC-62 melanoma) of 13.4 µM. The GI50 (NCI-H522 lung) was 2240 nM, the TGI (NCI-H522 lung) was 10.6 µM and the GI50 (DU-145 prostate) was 4.43 µM. For the same molecule, the TGI (DU-145 prostate) was 18.2 µM, the GI50 (K-562 leukemia) was 3.14 µM and the TGI (K-562 leukemia) was 70.9 µM. For the same molecule, the GI50 (SNB-75 CNS) was 4.44 µM, the TGI (SNB-75 CNS) was 19.3 µM and the GI50 (COLO 205 colon) was 1930 nM. The TGI (COLO 205 colon) was 3.65 µM, the GI50 (HS 578T breast) was 3.47 µM and the TGI (HS 578T breast) was 17.2 µM. The GI50 (MCF7 breast) was 2110 nM, the TGI (MCF7 breast) was 6.79 µM and the GI50 (RPMI-8226 leukemia) was 2480 nM. For the same molecule, the TGI (RPMI-8226 leukemia) was 7.98 µM, the GI50 (A498 renal) was 2730 nM and the TGI (A498 renal) was 6.97 µM. It also gave a GI50 (MOLT-4 leukemia) of 2420 nM, a TGI (MOLT-4 leukemia) of 8.14 µM and a GI50 (BT-549 breast) of 2950 nM. The TGI (BT-549 breast) was 7.93 µM, the GI50 (RXF 393 renal) was 1840 nM and the TGI (RXF 393 renal) was 5.08 µM. For the same molecule, the GI50 (OVCAR-8 ovarian) was 4.83 µM, the TGI (OVCAR-8 ovarian) was 21.7 µM and the GI50 (TK-10 renal) was 4.52 µM. The TGI (TK-10 renal) was 17.1 µM, the GI50 (SK-OV-3 ovarian) was 7.96 µM and the TGI (SK-OV-3 ovarian) was 21.2 µM. It also gave a GI50 (SF-295 CNS) of 2580 nM, a TGI (SF-295 CNS) of 8.35 µM and a GI50 (SK-MEL-5 melanoma) of 2340 nM. The TGI (SK-MEL-5 melanoma) was 6.28 µM, the GI50 (IGROV1 ovarian) was 2910 nM and the TGI (IGROV1 ovarian) was 11 µM. The GI50 (MDA-MB-231 breast) was 2110 nM, the TGI (MDA-MB-231 breast) was 4.94 µM and the GI50 (HT29 colon) was 1910 nM. The TGI (HT29 colon) was 4.97 µM, the GI50 (SR leukemia) was 2590 nM and the TGI (SR leukemia) was 10.7 µM. The GI50 (LOX IMVI melanoma) was 1680 nM, the TGI (LOX IMVI melanoma) was 3.07 µM and the GI50 (KM12 colon) was 3.15 µM. It also gave a TGI (KM12 colon) of 10.7 µM, a GI50 (NCI-H460 lung) of 2200 nM and a TGI (NCI-H460 lung) of 5.6 µM. It also gave a GI50 (U251 CNS) of 4.36 µM, a TGI (U251 CNS) of 17.1 µM and a GI50 (HCT-116 colon) of 1720 nM. The TGI (HCT-116 colon) was 3.56 µM, the GI50 (SF-539 CNS) was 2280 nM and the TGI (SF-539 CNS) was 6.05 µM. It also gave a GI50 (M14 melanoma) of 3.28 µM, a TGI (M14 melanoma) of 12.6 µM and a GI50 (CAKI-1 renal) of 3.34 µM. For the same molecule, the TGI (CAKI-1 renal) was 11.6 µM.
